Laboratory results taken from patent publication US20090227683A1, “Compositions for Providing an Analgesic Effect to the Skin” (priority 2008, published 2009).

Columns and labels:
[1] = tested on: Albino male CD-1 mice (neurogenic inflammation induced by Resiniferatoxin); experiment: Resiniferatoxin neurogenic inflammation model in the mouse ear (ear edema); assay type: in vivo; conditions: for inhibition of the neurogenic inflammatory response to resiniferatoxin, in words: summary of Tables 2 to 4
Source text: Neurosensory inflammation, also referred to as neurogenic inflammation, is a type of inflammation triggered by sensory nerve activation in skin. Certain natural substances that act on vanilloid receptors cause sensory nerves (C-fibers) to release inflammatory neuropeptides. In mouse skin, an edema response occurs rapidly upon application of a vanilloid receptor activator, such as capsaicin or resiniferatoxin (RTX).
Albino male CD-1 mice, 7-9 weeks old, were used. […] A 20-μL volume of Resiniferatoxin (0.05%) prepared in acetone was applied to the left ears (7 mice per treatment group). The right ear was not treated. Test agents were prepared in a 70% ethanol/30% propylene glycol vehicle and applied to the left ear (20 μL) immediately after resiniferatoxin challenge. The percent inhibition was calculated by comparing treatments to resiniferatoxin alone. Anti-neurogenic inflammation effects of compounds are evident as an inhibition of the increase in ear weight.

[2] = tested on: Albino male CD-1 mice (scratching induced by Compound 48/80); experiment: Scratching against Compound 48/80 in mice; assay type: in vivo; conditions: for effect on Compound 48/80 scratching, in words: text summary of Tables 1 and 8
Experimental: (§1) Albino male CD-1 mice, 7-9 weeks old, were used. Testing was based on known methods (See Liebel et al., Arch Dermatol Res. 298:191-199, 2006.) Test agents were prepared at concentrations noted in Table 1 in 100% ethanol and 50 μL was applied topically to the shaved dorsal skin 30 minutes prior to induction of scratching (8 mice per treatment group). Compound 48/80 (50 μg/50 μL: w/v) was then injected inter-dermal to the dorsal area and scratches were then counted for 30 minutes.
as §1, with “prepared” for “prepared at concentrations noted in Table 1”, “uL” for “μL”, “ug/50 uL” for “μg/50 μL:”

[3] = Table 2, topical dose 0.5 % w/v in 70% ethanol/30% propylene glycol, 20 μL to ear immediately after resiniferatoxin
[4] = Table 8, topical dose 1 % w/v in 100% ethanol, 50 uL, 30 minutes prior to Compound 48/80

Question: How did the “% Inhibition of the Ear Edema” value ([1]; Table 3, topical dose 1 % w/v) turn out when [Ca+2].[Cl-].[Cl-] [Calcium Chloride, reference compound] was run?
Answer: −3.24%

Question: Which “% Inhibition of the Ear Edema” value [1, 3] does the source give for CCN(CC)CC(=O)Nc1c(C)cccc1C [Lidocaine, reference compound] here?
Answer: 28.7%

Question: For Nc1cc(N2CCCCC2)nc(N)[n+]1[O-] [Minoxidil, reference compound], which “% Inhibition of Scratching” value [2, 4] is on record?
Answer: 8.42%

Question: Which “% Inhibition of Scratching” value [2, 4] does the source give for CC(N/C(=N\C#N)Nc1ccncc1)C(C)(C)C (stereo not drawn) [Pinacidil, reference compound] here?
Answer: 17.03%

Question: With CC(=O)[O-].[K+] [Potassium Acetate] as the compound, how does the “% Inhibition of the Ear Edema” value ([1]; Table 4, topical dose 0.398 % w/v) read?
Answer: −2.89%

Question: With O=C([O-])[O-].[K+].[K+] [Potassium Carbonate] as the compound, how does the “% Inhibition of the Ear Edema” value ([1]; Table 4, topical dose 0.283 % w/v) read?
Answer: 4.52%

Question: Which results are given for [Cl-].[K+] [Potassium Chloride]?
Answer: % Inhibition of the Ear Edema ([1]; Table 3, topical dose 0.524 % w/v): 9.98%; % Inhibition of the Ear Edema ([1]; Table 4, topical dose 0.524 % w/v): 9.98%

Question: Which results are given for CC(O)C(=O)[O-].[K+] (stereo not drawn) [Potassium Lactate]?
Answer: % Inhibition of Scratching ([2]; Table 1, topical dose 0.206 % w/v in 100% ethanol, 50 μL, 30 minutes prior to Compound 48/80): −8.84%; effect on Compound 48/80 scratching, in words [2]: very weak to no inhibition; % Inhibition of the Ear Edema ([1]; Table 2, topical dose 0.206 % w/v, 20 μL to ear immediately after resiniferatoxin): 13.52%; % Inhibition of the Ear Edema ([1]; Table 4, topical dose 0.206 % w/v): 13.52%; inhibition of the neurogenic inflammatory response to resiniferatoxin, in words [1]: failed to significantly inhibit

Question: With [Cl-].[Na+] [Sodium Chloride, reference compound] as the compound, how does the “% Inhibition of the Ear Edema” value ([1]; Table 3, topical dose 1 % w/v) read?
Answer: 7.06%

Question: Which “% Inhibition of Scratching” value ([2]; Table 1, topical dose 1 % w/v in 100% ethanol, 50 μL on shaved dorsal skin 30 minutes prior to Compound 48/80, scratches counted for 30 minutes) does the source give for CC(O)CN(CCN(CC(C)O)CC(C)O)CC(C)O (stereo not drawn) [Tetrahydroxypropyl ethylenediamine, N,N,N′,N′-Tetrakis(2-hydroxypropyl)ethylenediamine] here?
Answer: 9.39%

Question: What about the “% Inhibition of Scratching” value [2, 4] of the same compound?
Answer: 9.39%

Question: What about the “effect on Compound 48/80 scratching, in words” value [2] of the same compound?
Answer: very weak to no inhibition

Question: What about the “% Inhibition of the Ear Edema” value ([1]; Table 2, topical dose 1 % w/v, 20 μL to ear immediately after resiniferatoxin) of the same compound?
Answer: 4.04%

Question: And the “inhibition of the neurogenic inflammatory response to resiniferatoxin, in words” value [1]?
Answer: failed to significantly inhibit

Question: How did the “% Inhibition of the Ear Edema” value [1, 3] turn out when CC(C)NCCN(CCNC(C)C)CCNC(C)C [Tris[2-(isopropylamino)ethylamine] was run?
Answer: 13.62%

Question: And the “inhibition of the neurogenic inflammatory response to resiniferatoxin, in words” value [1]?
Answer: failed to significantly inhibit
